{"source": "patent US4992455A", "about": "“Thiazolidin-4-one derivatives useful for treating diseases caused by platelet activating factor” (Sumitomo Pharmaceuticals Company, Limited, priority 1987, dated 1991)", "key": {"[1]": {"system": "PAF-induced blood concentration", "assay": "Test in vivo for inhibition of PAF-induced blood concentration", "settings": "guinea pigs, PAF iv 2 min later", "procedure": "Guinea pigs under anesthesia with urethane (6.25 mg/kg injected into the abdominal cavities) were cannulated through carotid arteries and jugular veins. The carotid artery cannulae were used for blood sampling and the jugular vein cannulae for the intravenous injection of test compound and PAF.\nCompound No. 27 was suspended in 10% Nikkol® liquid to a concentration of 3 mg/ml, and 1 ml/kg of the resulting suspension was administered through the jugular vein cannulae. Two minutes later, 1 ml/kg of a 0.1 μg/m1 PAF solution was administered through the jugular vein cannulae. Then, blood was sampled at times. The blood samples were each centrifuged at 11,000 rpm for 5 minutes and the hematocrit values were measured to determine the maximum increase (blood concentration) in hematocrit value.\nFor a control, 0.5% methyl cellulose solution was administered in place of compound No. 27.\nThe percentage inhibition of the PAF-induced blood concentration by compound No. 27 was calculated according to the following equation: [formula] The found percentage inhibition was 87%."}, "[2]": {"system": "PAF-induced human platelet aggregation", "assay": "Inhibition of PAF-induced human platelet aggregation (in vitro, human PRP)", "assay_type": "cell-based", "procedure": "(§1) The inhibition of PAF-induced platelet aggregation was examined by using a platelet-rich plasma (PRP) of rabbit according to the method of Mustard et al. [J.F. Mustard et al., J. Lab. Clin. Med., 64, 548 (1964)], which is an improvement of the method of Born [G.V.R. Born, J. Physiol., London, 162, 67 (1962)]. That is, 80-100 ml of blood per animal was collected from carotid arteries of male rabbits of the Japanese white breed without anesthesia into a polyethylene vessel containing 1/10 the volume of a 3.8% sodium citrate solution. A portion (about 3 ml) of the collected blood was centrifuged at a high speed (11,000 rpm) for 60 seconds, giving a platelet-poor plasma (PPP) as supernatant. The remainder of the blood was centrifuged at a low speed (1000 rpm) for 10 minutes, giving a platelet-rich plasma (PRP) as supernatant.\n(§2) The degree of platelet aggregation was determined by nephelometry with an aggregometer (Hematracer, Niko Bioscience Co.) while stirring the PRP at 1000 rpm at 37° C. The platelet aggregation activity was expressed in terms of the light transmittance (%), the value of PRP being taken as 0% and the value of PPP as 100%. A portion (0.2 ml) of the PRP was placed in a glass cuvette containing a silicone-treated stirring iron rod, and 2 µl of dimethylsulfoxide was added. AFter 2 minutes, PAF dissolved in 0.25% BSA physiological saline was added to give a final PAF concentration of 0.005 μ1/ml, and the maximum aggregation was determined. To examine the inhibitory activity of test compounds on the platelet aggregation caused by PAF, 2 µl of a dimethylsulfoxide solution of each test compound was added in place of the dimethylsulfoxide. The percentage inhibition by the test compound of PAF-induced platelet aggregation was calculated according to the following equation and the value of IC50 was determined. [formula]\nThe inhibition of PAF-induced platelet aggregation was tested by using human PRP. The test was conducted according to the procedure of the above case of rabbit, thereby evaluating the percentages inhibition and IC50 values of test compounds at final PAF concentrations of 0.3 μM and 1 μM."}, "[3]": {"system": "PAF-induced rabbit platelet aggregation", "assay": "Inhibition of PAF-induced rabbit platelet aggregation (in vitro, platelet-rich plasma)", "assay_type": "cell-based", "settings": "Oryctolagus cuniculus, rabbit PRP, 37° C., final PAF concentration 0.005 μ1/ml [sic]", "procedure": "as §1, §2"}, "[4]": {"system": "fatal effect of PAF on mice", "assay": "Test for inhibition of fatal effect of PAF on mice", "assay_type": "in vivo, Male ICR mice", "settings": "10 mg/kg iv, PAF 10 μg/kg iv, 2 hours after PAF", "procedure": "Male ICR mice (perchased from Charles River Co.) aged 4 weeks were anesthetized by injecting subcutaneously 100 mg/kg of Isomital® soda (sodium amobarbital supplied by Nippon Shinyaku Co., Ltd.). After 18 minutes, the mice were injected with a test compound or a solvent through tail veins. The test compound was dissolved in a 0.2 M phosphate buffer solution to a concentration of 1 mg/ml and 10 ml/kg of this solution was injected (dose of test compound 10 mg/kg). Two minutes after this administration, the mice were injected with 10 μg/kg of PAF through tail veins. The PAF was dissolved in physiological saline containing 0.25% of bovine serum albumin to a concentration of 2 μg/ml, and the mice were injected with 5 ml/kg of this solution.\nAfter PAF administration, the mice were observed and the survival rate of mice 2 hours later was determined."}}, "note": "Structures can show the parent of a compound that is named as a salt."}
{"molecule": "C[C@H]1S[C@@H](c2cccnc2)N(C)C1=O", "note": "(relative stereo) [Compound No. 2, 3,5-Dimethyl-2-(3-pyridyl)thiazolidin-4-one]", "values": [{"measurement": "Percentage inhibition of PAF-induced blood concentration (maximum increase in hematocrit value)", "setting": "[1]; dose 3 mg/kg iv", "result": 53, "unit": "%"}, {"measurement": "IC50", "setting": "[2]; PAF concentration 0.3 μM", "result": 5.5, "unit": "mg/L"}, {"measurement": "IC50", "setting": "[3]", "result": 4, "unit": "mg/L"}]}
{"molecule": "CCCCCCCCC[C@H]1S[C@H](c2cccnc2)N(CCN(C)C)C1=O", "note": "(relative stereo) [Compound No. 27, 3-(2-dimethylaminoethyl)-5-(n-nonyl)-2-(3-pyridyl)thiazolidin-4-one]", "values": [{"measurement": "Percentage inhibition of PAF-induced blood concentration (maximum increase in hematocrit value)", "setting": "[1]; dose 3 mg/kg iv", "result": 87, "unit": "%"}, {"measurement": "IC50", "setting": "[2]; PAF concentration 0.3 μM", "result": 0.2, "unit": "mg/L"}, {"measurement": "IC50", "setting": "[2]; PAF concentration 1 μM", "result": 0.4, "unit": "mg/L"}, {"measurement": "IC50", "setting": "[3]", "result": 0.02, "unit": "mg/L"}]}
{"molecule": "C[C@H]1S[C@H](c2cccnc2)N(C)C1=O", "note": "(relative stereo) [compound 3, 3,5-Dimethyl-2-(3-pyridyl)thiazolidin-4-one]", "values": [{"measurement": "Percentage inhibition of PAF-induced blood concentration (maximum increase in hematocrit value)", "setting": "[1]; dose 30 mg/kg iv", "result": 58, "unit": "%"}, {"measurement": "IC50", "setting": "[2]; PAF concentration 0.3 μM", "result": 6, "unit": "mg/L"}, {"measurement": "IC50", "setting": "[3]", "result": 3.5, "unit": "mg/L"}]}
{"molecule": "CCCCCCCCC[C@H]1S[C@@H](c2cccnc2)N(CCN(C)C)C1=O", "note": "(relative stereo) [compound 28, 3-(2-Dimethylaminoethyl)-5-(n-nonyl)-2-(3-pyridyl)thiazolidin-4-one]", "values": [{"measurement": "Percentage inhibition of PAF-induced blood concentration (maximum increase in hematocrit value)", "setting": "[1]; dose 30 mg/kg iv", "result": 92, "unit": "%"}, {"measurement": "IC50", "setting": "[2]; PAF concentration 0.3 μM", "result": 1.2, "unit": "mg/L"}, {"measurement": "IC50", "setting": "[2]; PAF concentration 1 μM", "result": 2.5, "unit": "mg/L"}, {"measurement": "IC50", "setting": "[3]", "result": 0.2, "unit": "mg/L"}]}
{"molecule": "CCCCCC[C@H]1S[C@H](c2cccnc2)N(CCN(C)C)C1=O", "note": "(relative stereo) [compound 174]", "values": [{"measurement": "Survival rate", "setting": "[4]", "result": 80, "unit": "%"}]}
{"molecule": "CCCCCCC[C@H]1S[C@H](c2cccnc2)N(CCN(C)C)C1=O", "note": "(relative stereo) [compound 175]", "values": [{"measurement": "Survival rate", "setting": "[4]", "result": 60, "unit": "%"}]}
{"molecule": "C[C@H]1S[C@@H](c2cccnc2)N(C)C1=O", "note": "(relative stereo) [compound 182, 3,5-dimethyl-2-(3-pyridyl)thiazolidin-4-one hydrochloride]", "values": [{"measurement": "Survival rate", "setting": "[4]", "result": 100, "unit": "%"}]}
